Laboratory results reported in patent US20050037989A1, “Inhibition of gene function by delivery of polynucleotide-based gene expression inhibitors to mammalian cells in vivo” (priority 2001, published 2005).
d = 2'-deoxy (DNA); r = 2'-OH (RNA)

Assays:
luciferase+ mRNA = test: Inhibition of luciferase expression in lung after delivery of siRNA using recharged particles (lPEI/pAA); format: in vivo, ICR mice
Procedure: Inhibition of Luciferase expression in lung after in vivo delivery of siRNA using recharged particles. Recharged particles were formed to deliver the reporter genes luciferase+ and Renilla luc as well as siRNA targeted against luciferase+ mRNA or a control siRNA to the lung. In this experiment, particles containing the reporter genes were delivered first, followed by delivery of particles containing the siRNAs. In all cases, particles were prepared with the polycation linear polyethylenimine (IPEI) and the polyanion polyacrylic acid (pAA). For delivery of reporter genes, particles were prepared which contained a mixture of the luc+ and Renilla luc expression plasmids. Normalization of expression of the two luciferase genes corrects for varying plasmid delivery efficiencies between animals. Particles containing a mixture of the expression plasmids containing the luciferase+ gene and the Renilla luciferase gene were injected intravascularly. Particles containing siRNA-Luc+ or a control siRNA were injected intravascularly immediately following injection of the plasmid-containing particles. 24 hours later, the lungs were harvested and the homogenate assayed for both Luc+ and Renilla Luc activity.
Specific experimental details were as follows: plasmid-containing particles were prepared by mixing 45 μg pGL3 control (Luc+) and 5 μg pRL-SV40 (Renilla Luc) with 300 μg IPEI in 10 mM HEPES, pH 7.5/5% glucose. After vortexing for 30 seconds, 50 μg pAA was added and the solution vortexed was for 30 seconds. siRNA-containing particles were prepared similarly, except 25 μg siRNA was used with 200 μg IPEI and 25 μg pAA. Particles containing the plasmid DNAs (total volume 250 μl) were injected into the tail vein of ICR mice. In animals that received siRNA, particles containing siRNA (total volume 100 μl) were injected into the tail vein immediately after injection of the plasmid DNA-containing particles. 1.5 mg pAA in 100 μl was then injected into the tail vein some animal 0.5 h later. 24 h later, animals were sacrificed and the lungs were harvested and homogenized. The homogenate was assayed for Luc+ and Renilla Luc activity using the Dual Luciferase Assay Kit (Promega Corporation).

Luc+ expression [1] = test: Dual luciferase in liver after bile duct delivery of plasmids and siRNA; format: in vivo, mice; conditions: 5.0 μg siRNA, bile duct injection, one day, compared to control siRNA-ori
Procedure: Inhibition of Luciferase expression by siRNA is gene specific and siRNA specific in liver after bile duct delivery in vivo. 10 μg pGL3 control and 1 μg pRL-SV40 with 5.0 μg siRNA-luc+ or 5.0 siRNA-ori were injected into the bile duct of mice. A total volume of 1 ml in Ringer's buffer was delivered at 6 ml/min. […] One day after injection, the liver was harvested and homogenized as described in Example 1. Luc+ and Renilla Luc activities were assayed using the Dual Luciferase Reporter Assay System (Promega). Ratios of Luc+ to Renilla Luc were normalized to the siRNA-ori control. siRNA-Luc+ inhibited Luc+ expression in liver by 88% compared to the control siRNA-ori.

Luc+ expression [2] = test: Dual luciferase (pGL3 control + pRL-SV40) co-injected with siRNA, increased-pressure tail vein injection, organs assayed; format: in vivo, mice; conditions: one day; for inhibition of target Luc+ expression (Luc+/Renilla Luc ratio): liver, normalized to no siRNA control
Procedure: Inhibition of Luciferase expression by siRNA is gene specific in liver in vivo. Two plasmids were injected simultaneously either with or without siRNA-luc+ as described in Example 1. The first plasmid, pGL3 control (Promega Corp, Madison, Wis.), contains the luc+ coding region and a chimeric intron under transcriptional control of the simian virus 40 enhancer and early promoter region. The second, pRL-SV40, contains the coding region for the Renilla reniformis luciferase under transcriptional control of the Simian virus 40 enhancer and early promoter region.
10 μg pGL3 control and 1 μg pRL-SV40 was injected as described in Example 1 with 0, 0.5 or 5.0 μg siRNA-luc+. One day after injection, the livers were harvested and homogenized as described in Example 1. Luc+ and Renilla Luc activities were assayed using the Dual Luciferase Reporter Assay System (Promega).
Inhibition of Luciferase expression by siRNA is gene specific and siRNA specific in liver in vivo. 10 μg pGL3 control and 1 μg pRL-SV40 were injected as described in Example 1 with either 5.0 μg siRNA-luc+ or 5.0 control siRNA-ori. One day after injection, the livers were harvested and homogenized as described in Example 1. Luc+ and Renilla Luc activities were assayed using the Dual Luciferase Reporter Assay System (Promega). Ratios of Luc+ to Renilla Luc were normalized to the siRNA-ori control. siRNA-Luc+ inhibited Luc+ expression in liver by 93% compared to siRNA-ori indicating inhibition by siRNAs is sequence specific in this organ.
In vivo delivery of siRNA by increased-pressure intravascular injection results in strong inhibition of target gene expression in a variety of organs. 10 μg pGL3 Control and 1 μg pRL-SV40 were co-injected with 5 μg siRNA-Luc+ or 5 μg control siRNA (siRNA-ori) targeted to sequence in the plasmid backbone as in example 1. One day after injection, organs were harvested and homogenized and the extracts assayed for target firefly luciferase+ activity and control Renilla luciferase activity. Firefly luciferase+activity was normalized to that Renilla luciferase activity in order to compensate for differences in transfection efficiency between animals.

[3] = lung homogenate, 24 h, 25 μg siRNA in lPEI/pAA particles
[4] = siRNA particles injected after plasmid particles
[5] = Example 4: 5 μg siRNA, compared to control siRNA-ori

**Q.** What does the source list for “siRNA-luc+: annealed oligomers SEQ ID 4 and SEQ ID 5 containing luc+ coding sequence, positions 155-173 of the luc+ reading frame (chain 1 CUUACGCUGAGUACUUCGATT; chain 2 UCGAAGUACUCAGCGUAAGTT; sugars from the 5' end r19 d2, backbone not given here; listed as Photinus pyralis)”?
**A.** Luc+ Relative light units, Replicate 1 (luciferase+ mRNA; [3]): 326697 Relative light units; Luc+ Relative light units, Replicate 2 (luciferase+ mRNA; [3]): 428079 Relative light units; Renilla Luc Relative light units, Replicate 1 (luciferase+ mRNA; [3]): 1283313 Relative light units; Renilla Luc Relative light units, Replicate 2 (luciferase+ mRNA; [3]): 2683842 Relative light units; Average Luc+/Renilla Luc ratio (luciferase+ mRNA; lung, 24 h): 0.21 +/− 0.07; Normalized Luc+/Renilla Luc (luciferase+ mRNA; lung, 24 h, plasmids only = 1.00): 0.48 +/− 0.16; effect on Luc+ expression in lung (in words) (luciferase+ mRNA; [4]): specific inhibition of Luc+ expression; effect on Renilla Luc expression in lung (in words) (luciferase+ mRNA; [4]): not inhibited; inhibition of Luc+ expression in liver (Luc+ expression [1]): 88%; inhibition of target Luc+ expression (Luc+/Renilla Luc ratio) (Luc+ expression [2]; 0.5 μg co-injected siRNA): 73%; inhibition of target Luc+ expression (Luc+/Renilla Luc ratio) (Luc+ expression [2]; 5.0 μg co-injected siRNA): 82%; inhibition of Luc+ expression in liver (Luc+ expression [2]; Example 3: 5.0 μg siRNA, compared to siRNA-ori): 93%; inhibition of firefly luciferase+ activity, heart (Luc+ expression [2]; [5]): 74%; inhibition of firefly luciferase+ activity, kidney (Luc+ expression [2]; [5]): 87%; inhibition of firefly luciferase+ activity, liver (Luc+ expression [2]; [5]): 95%; inhibition of firefly luciferase+ activity, lung (Luc+ expression [2]; [5]): 81%; inhibition of firefly luciferase+ activity, pancreas (Luc+ expression [2]; [5]): 92%; inhibition of firefly luciferase+ activity, spleen (Luc+ expression [2]; [5]): 77%
